We go through 2 compounds from publication PMC5515887, “Ruthenium-conjugated chrysin analogues modulate platelet activity, thrombus formation and haemostasis with enhanced efficacy” (Scientific Reports, 2017).

The subject of assay [1] is human platelet-rich plasma (PRP). In words: CRP-XL-induced platelet aggregation in human platelet-rich plasma (optical aggregometry). Format: cell-based. As to the method:
Therefore, to determine the effects of various concentrations of chrysin and its derivatives in the presence of plasma proteins, aggregation assays were performed using human platelet-rich plasma (PRP) and 0.5 μg/mL CRP-XL.
Figure 3 Impact of chrysin and its derivatives on platelet activation in platelet-rich plasma. […] The platelet aggregation was monitored for 5 minutes. The traces shown are representative of three separate experiments.
The preparation of human platelets and aggregation assays were performed using standard protocols as described by us previously, [16]. Briefly, human blood was collected in 3.2% citrate containing vacutainers via venepuncture from healthy, aspirin-free individuals with informed consent in accordance with the methods approved by the University of Reading Research Ethics Committee. All methods were performed in accordance with the relevant institutional and national guidelines and regulations. Blood samples were centrifuged at 102 g for 20 minutes at room temperature to separate the PRP, which was used in aggregation, flow cytometry, static platelet adhesion, calcium mobilisation and clot retraction assays. For the preparation of washed platelets, 50 mL of blood samples were mixed with 7.5 mL of ACD (acid citrate dextrose) (20 g/L glucose, 25 g/L sodium citrate and 15 g/L citric acid) and centrifuged at 102 g for 20 minutes at room temperature. The PRP was carefully aspirated from the other blood cells prior to mixing with 3 mL of ACD and centrifuging at 1413 g for 10 minutes at room temperature. The resulting platelet pellet was re-suspended in modified Tyrodes-HEPES buffer (2.9 mM KCl, 134 mM NaCl, 0.34 mM Na2HPO4.12H20, 1 mM MgCl2, 12 mM NaHCO3, 20 mM HEPES, pH 7.3) and washed by centrifuging again at 1413 g for 10 minutes. The resulting platelet pellet was suspended in modified Tyrodes-HEPES buffer at a density of 4 × 10^8 cells/mL for aggregation, dense granule secretion, cellular uptake studies and calcium mobilisation assays. Human platelet aggregation was performed using CRP-XL as an agonist in the presence and absence of various concentrations of chrysin and its synthetic derivatives by optical aggregometry. A vehicle control [DMSO at a concentration of less than 0.1% (v/v)] was included in all the experiments. Dense granule secretion in platelets was determined by measuring the ATP release using the luciferin-luciferase reagent by lumi-aggregometry (Chrono-Log, USA). SDS-PAGE and immunoblotting analysis were performed using standard protocols. The rabbit anti-phospho-specific antibodies for human AKT pS473, FAK pY397 and Src pY527 were obtained from Abcam, UK and rabbit anti-human 14-3-3ζ (Santa Cruz Biotechnology, USA) was used to detect protein 14-3-3ζ as a loading control in immunoblot assays. The Cy5-conjugated goat anti-rabbit IgG (Life technologies, UK) was used as the secondary antibody.

Assay [2] deals with platelet adhesion (integrins αIIbβ3 and α2β1). In words: Static platelet adhesion assay on collagen, CRP-XL and fibrinogen. Format: cell-based, human. The conditions noted are these: PRP; static conditions; in the presence and absence of integrilin (4 µM). As to the method:
Integrins αIIbβ3 and α2β1 play critical roles in platelet adhesion to different matrix proteins such as fibrinogen and collagen, respectively.
Micro titre plates (96 well) were coated with 1 μg/100 μL/well of fibrinogen, collagen or CRP-XL followed by incubation at 4 °C for overnight. Following the removal of unbound proteins/peptide, the wells were blocked with 1% bovine serum albumin in modified Tyrodes-HEPES buffer for 1 hour. The plates were then washed three times with modified Tyrode’s-HEPES buffer prior to adding human PRP (1 × 10^8 cells/mL, 50 μL/well) and incubated at room temperature for 1 hour. Non-adhered platelets were discarded and then the wells were washed with modified Tyrodes-HEPES buffer. Citrate lysis buffer (100 μL/well) was added and incubated for 1 hour at room temperature. Finally, 100 μL of 2 M NaOH was added to all the wells to stop the reaction and the absorbance was measured at 405 nm using a Fluostar Optima spectrofluorimeter (BMG Labtech, Germany). Experiments were performed both in the absence and presence of integrilin (4 μM) (an antagonist for integrin αIIbβ3).

The subject of another assay is AKT. The experiment in a line: Immunoblot of AKT phosphorylation at S473 in CRP-XL activated platelets. It is filed as cell-based, human. The conditions noted are these: washed platelets, CRP-XL 0.5 μg/mL. The text has this:
(§1) The calcium traces (Ai and Bi) shown are representative of three separate experiments. […] The platelets were lysed and used for immunoblot analysis to detect the level of AKT phosphorylation at residue S473, FAK phosphorylation at Y397 and phosphorylation of Src at Y527. The level of 14-3-3ζ protein was detected as a loading control. The cropped images of the blots shown here are representative of three separate experiments. The uncropped full length blots are presented in Supplementary Information (Figure S8).
(§2) Calcium mobilisation is associated with phosphoinositide 3-kinase (PI3K) signalling in platelets. Protein kinase B (AKT) is a downstream effector of PI3K and a key marker for the PI3K/AKT signalling pathway. […]
(§3) The preparation of human platelets and aggregation assays were performed using standard protocols as described by us previously, [16]. Briefly, human blood was collected in 3.2% citrate containing vacutainers via venepuncture from healthy, aspirin-free individuals with informed consent in accordance with the methods approved by the University of Reading Research Ethics Committee. […] Dense granule secretion in platelets was determined by measuring the ATP release using the luciferin-luciferase reagent by lumi-aggregometry (Chrono-Log, USA). […]

For the next assay, the system named is FAK. In words: Immunoblot of FAK phosphorylation at Y397 in CRP-XL activated platelets. To be noted: washed platelets, CRP-XL 0.5 μg/mL. It is filed as cell-based, human.
Source text: as §1, §2, §3
A general note: A western blot detects proteins with antibodies after separation by electrophoresis.

The test system of the next assay is human whole blood. The experiment in a line: In vitro thrombus formation under arterial flow conditions on collagen-coated Vena8 biochips. It is filed as cell-based. To be noted: 100 μM compound. The method, then: Platelet activation under arterial flow conditions culminates in the formation of thrombus at the damaged blood vessels and thereby reducing the blood supply to target tissues.
Thrombus formation was monitored by capturing Z-stack fluorescent images at every 30 seconds over 10 minutes by fluorescence microscopy. The images shown (A) at different time points and traces (B) are representative of three separate experiments. […] Data represent ± S.D. (n = 8 mice in each group).
Z-stack images of thrombi were obtained every 30 seconds for up to 10 minutes using a Nikon eclipse (TE2000-U) microscope (Nikon Instruments, UK). The median fluorescence intensity and thrombus volume were calculated by analysing the images using ImageJ.

A further assay relates to Src. The experiment in a line: Immunoblot of Src phosphorylation at Y527 in CRP-XL activated platelets. Format: cell-based, human. To be noted: washed platelets, CRP-XL 0.5 μg/mL.
Source text: as §1, §2, §3

Assay [3] relates to human platelet-rich plasma. The conditions noted are these: PRP; 100 μM compound; CRP-XL 0.5 μg/mL.
Source text: as §1

`O=c1cc(-c2ccccc2)oc2cc(O)cc(O)c12` [chrysin]: the “effect on platelet aggregation at lower concentrations” value in assay [1] (PRP, 6.25 μM and 12.5 μM compound, CRP-XL 0.5 μg/mL) is recorded as “did not exhibit significant effects”. In addition, the “reduction in platelet aggregation” value in assay [1] (PRP, 100 μM compound, CRP-XL 0.5 μg/mL) is “around 40%”. The “effect on platelet adhesion to collagen, CRP-XL or fibrinogen” value in assay [2] is given as “did not affect platelet adhesion”. Besides, the “effect on AKT phosphorylation at S473” value in the assay with AKT is given as “inhibited their phosphorylation in a concentration-dependent manner”. The “effect on FAK phosphorylation at Y397” value with FAK is given as “inhibited their phosphorylation in a concentration-dependent manner”. For the same compound, the inhibition at 100 µM in the assay on human whole blood (10 min, 20 dynes/cm^2, read-out: inhibition of thrombus growth and volume) is about 50%. For the same compound, the “effect on dephosphorylation of Src at Y527” value in the assay with Src is “significant impact on the dephosphorylation of Src at Y527”.

Turning to “chlorido [(5-oxo-κO)-7-hydroxy-(2-phenyl)-4H-chromen-4-thionato-κS] (η6-p-cymene)ruthenium(II) [Ru-thio-chrysin]”, in assay [1] (PRP, CRP-XL 0.5 μg/mL), the “effect on platelet aggregation in PRP” value is listed as “significant effect at lower concentrations including 6.25 μM”. For the same compound, in assay [1] (physiologically relevant conditions such as platelet-rich plasma and whole blood), the “greater inhibition of platelet function and thrombus formation in vitro than chrysin” value is reported as 4 fold. Moreover, the “effect on platelet adhesion to collagen, CRP-XL or fibrinogen” value in assay [2] is reported as “did not affect platelet adhesion”. Besides, the “effect on AKT phosphorylation at S473” value in the assay on AKT is “inhibited their phosphorylation in a concentration-dependent manner”. Also, in the assay with FAK, the “effect on FAK phosphorylation at Y397” value was “inhibited their phosphorylation in a concentration-dependent manner”. For the same compound, in the assay on human whole blood (20 dynes/cm^2, 10 minutes), the “inhibition of thrombus growth and volume” value is given as “approximately 75%”. In addition, the “reduction in calcium mobilisation” value in assay [3] is “around 60%”. Also, in the assay on Src, the “effect on dephosphorylation of Src at Y527” value is reported as “significant impact on the dephosphorylation of Src at Y527”.

For orientation: inhibition means the change of the read-out against control, counted positive when it falls.
